Reference: patent US8173682B2, “Substituted pyridones as inhibitors of poly(ADP-ribose) polymerase (PARP)” (Aventis Pharmaceuticals Inc., priority 2004, dated 2012)
Structures can show the parent of a compound that is named as a salt.

Each compound was assayed against T1, recombinant human PARP (PARP1) (Homo sapiens, UniProt P09874) (assay: PARP enzyme assay, Method A (radioactivity or 'ELISA' enzyme assay with partially purified enzyme)). Conditions: recombinant human PARP preparation, radioactive or ELISA enzyme assay.
T1 construct: Full length human PARP (PARP1) is assembled from PCR fragments; His6 tag with TEV site, from the pFastBac-HTb vector (own knowledge of the vector); made in house; host or cells: insect cells, baculovirus (Bac-to-Bac, Gibco-BRL)
T1 sequence (P09874 whole entry, the tested form may be a part): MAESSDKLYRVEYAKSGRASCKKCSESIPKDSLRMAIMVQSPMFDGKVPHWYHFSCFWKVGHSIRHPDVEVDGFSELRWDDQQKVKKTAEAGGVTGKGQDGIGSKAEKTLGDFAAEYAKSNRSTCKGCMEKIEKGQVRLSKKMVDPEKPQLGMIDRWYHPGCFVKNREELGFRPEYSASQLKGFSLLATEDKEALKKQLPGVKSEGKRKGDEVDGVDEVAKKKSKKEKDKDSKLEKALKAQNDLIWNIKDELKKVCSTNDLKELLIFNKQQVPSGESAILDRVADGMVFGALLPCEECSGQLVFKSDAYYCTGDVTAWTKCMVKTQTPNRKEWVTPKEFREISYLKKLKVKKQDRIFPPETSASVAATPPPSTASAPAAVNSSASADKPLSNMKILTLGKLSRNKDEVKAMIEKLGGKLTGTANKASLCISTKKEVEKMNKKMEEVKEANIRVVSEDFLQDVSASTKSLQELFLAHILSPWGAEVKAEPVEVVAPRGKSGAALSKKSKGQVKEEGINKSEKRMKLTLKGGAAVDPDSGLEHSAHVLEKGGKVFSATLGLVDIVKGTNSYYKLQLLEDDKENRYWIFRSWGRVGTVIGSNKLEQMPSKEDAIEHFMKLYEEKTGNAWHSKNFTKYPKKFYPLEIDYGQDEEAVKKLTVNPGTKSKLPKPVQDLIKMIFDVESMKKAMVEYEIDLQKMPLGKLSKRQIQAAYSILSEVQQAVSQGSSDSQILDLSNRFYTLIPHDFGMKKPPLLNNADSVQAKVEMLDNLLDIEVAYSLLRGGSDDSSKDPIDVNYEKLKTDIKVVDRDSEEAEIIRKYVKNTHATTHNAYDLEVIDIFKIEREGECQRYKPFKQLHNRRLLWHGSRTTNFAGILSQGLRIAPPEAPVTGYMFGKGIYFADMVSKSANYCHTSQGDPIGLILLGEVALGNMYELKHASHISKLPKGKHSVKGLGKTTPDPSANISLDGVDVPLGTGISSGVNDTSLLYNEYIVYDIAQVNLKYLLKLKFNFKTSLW
Type: biochemical
From the text: Two different methods are employed in determining the activity of the compounds of this invention in inhibiting the activity of PARP enzyme, designated as Method A and Method B respectively as set forth below.
Method A: Cloning and Expression, and Partial Purification of Recombinant Human PARP:
Full length human PARP (PARP1) is assembled from PCR fragments of a clone from a human brain cDNA library and two Incyte clones. The PARP gene (3046 bp) is sub-cloned into pFastBac-HTb vector to give PARP-pFastBac-HTb and the sequence of this clone is verified. PARP-pFastBac-HTb is expressed to obtain protein using the Bac-to-Bac expression protocol from Gibco-BRL. The recombinant virus generated is used to scale up the material for purification.
Cell pellets from cell broth of cells expressing PARP are treated with a cocktail of protease inhibitors and lysed by 4 freeze-thaw cycles. The material is suspended in 10 mM HEPES/0.1M NaCl/pH 7.2, stirred, and then centrifuged. A 40%-70% ammonium sulfate cut of protein pellet is obtained from the supernatant. The pellet is solubilized in 10 mM HEPES/pH 7.2 and centrifuged. The supernatant buffer is exchanged to 10 mM HEPES/pH 7.2/0.1M NaCl/25% glycerol by dialysis or with a desalting column. The enzyme preparation is stored at −20° C. until use.
The compounds of this invention are then tested with this enzyme preparation using either the radioactive enzyme assay or by the “ELISA” enzyme assay as set forth below.
Radioactivity Enzyme Assay:
Incorporation of radioactivity from labeled NAD into acid-precipitated protein is measured. The reaction mixture (volume 100 μL or 50 μL, in a test-tube or 96-well plate) contained 100 μg/mL calf thymus DNA (sonicated), 100 μg/mL histones, 100 mM Tris (pH 8.0), 1.0 mM DTT, 10 mM MgCl2, NAD (200 μM, 0.65 microcurie/mL), and varying amounts of enzyme. The reaction was incubated for 10 min at 37° C. or at room temperature for 60 min. The reaction was stopped and protein precipitated by addition of ice-cold trichloroacetic acid (TCA; 10% or 20% aqueous w/v). After brief storage in ice or at 4° C. for 2 hrs, the reaction mixture is filtered under vacuum through a glass fiber filter (2.5 cm disc, or 96-well filter plate). After washing with TCA and ethanol, the filter is dried and counted for tritium CPM after addition of scintillation fluid.
Incorporation of biotin-NAD into histone coated on plate is measured. A 96-well protein-binding EIA plate is coated with histone and blocked with bovine serum albumin. The reaction mixture (50 μL) contained DNA, buffer, enzyme, (test compound), and 250 μM of NAD and 5 μL of biotin-NAD (Trevigen). After reaction at room temperature the wells are washed and treated with Extravidin (Sigma). After incubation and washing color is developed with the peroxidase substrate TMB (Sigma). The TMB reaction is quenched with 2M sulfuric acid and the absorbance at 450 nm is read.

Row | Compound | IC50 [µM]
1 | 5-(5-Ethyl-2-methyl-6-oxo-1,6-dihydropyridin-3-yl)thiophene-2-sulfonic acid (2-1′-[5-(5-ethyl-2-methyl-6-oxo-1,6-dihydropyridin-3-yl)thiophene-2-sulfonyl]-1H-imidazol-4-yl}ethyl)amide hydrochloride [Example 40] | 0.13
2 | CCc1cc(-c2ccc(CN3CCOCC3)c(C#N)c2)c(C)[nH]c1=O [Example 2, 5-(5-Ethyl-2-methyl-6-oxo-1,6-dihydropyridin-3-yl)-2-(morpholin-4-yl)methylbenzonitrile] | 4.5
3 | CCc1cc(-n2nccn2)c(C)[nH]c1=O [Example 12, 3-Ethyl-6-methyl-5-(1,2,3-triazol-2-yl)-1H-pyridin-2-one] | 1.6
4 | CCc1cc(-n2ccnn2)c(C)[nH]c1=O [Example 13, 3-Ethyl-6-methyl-5-(1,2,3-triazol-1-yl)-1H-pyridin-2-one] | 2.1
5 | CCc1cc(-c2nnc(C)o2)c(C)[nH]c1=O [Example 15, 3-Ethyl-6-methyl-5-(5-methyl-1,3,4-oxadiazol-2-yl)-1H-pyridin-2-one] | 0.72
6 | CCc1cc(-c2ncnn2C)c(C)[nH]c1=O [Example 17, 3-Ethyl-6-methyl-5-(2-methyl-2H-1,2,4-triazol-3-yl)-1H-pyridin-2-one] | 1.7
7 | CCc1cc(-c2ncno2)c(C)[nH]c1=O [Example 18, 3-Ethyl-6-methyl-5-(1,2,4-oxadiazol-5-yl)-1H-pyridin-2-one] | 0.65
8 | CCc1cc(-c2nc(C)nn2C)c(C)[nH]c1=O [Example 20, 5-(2,5-Dimethyl-2H-1,2,4-triazol-3-yl)-3-ethyl-6-methyl-1H-pyridin-2-one] | 1.1
9 | CCc1cc(-c2ncon2)c(C)[nH]c1=O [Example 23, 3-Ethyl-6-methyl-5-(1,2,4-oxadiazol-3-yl)-1H-pyridin-2-one] | 0.67
10 | CCc1cc(-c2ccc(S(=O)(=O)N(C)C)s2)c(C)[nH]c1=O [Example 28, 5-(5-Ethyl-2-methyl-6-oxo-1,6-dihydropyridin-3-yl)thiophene-2-sulfonic acid dimethylamide] | 0.72
11 | CCc1cc(-c2ccc(S(=O)(=O)NCCCN3CCC(O)C3)s2)c(C)[nH]c1=O (centres unmarked) [Example 30, 5-(5-Ethyl-2-methyl-6-oxo-1,6-dihydro-pyridin-3-yl)-thiophene-2-sulfonic acid [3-(3-hydroxy-pyrrolidin-1-yl)-propyl]-amide hydrochloride] | 10
12 | CCc1cc(-c2ccc(S(=O)(=O)NCCNc3ccccc3)s2)c(C)[nH]c1=O [Example 32, 5-(5-Ethyl-2-methyl-6-oxo-1,6-dihydropyridin-3-yl)thiophene-2-sulfonic acid 2-phenylaminoethylamide hydrochloride] | 2.9
13 | CCc1cc(-c2ccc(S(=O)(=O)NCCOC)s2)c(C)[nH]c1=O [Example 33, 5-(5-Ethyl-2-methyl-6-oxo-1,6-dihydropyridin-3-yl)thiophene-2-sulfonic acid (2-methoxyethyl)amide] | 10.5
14 | CCc1cc(-c2ccc(S(=O)(=O)NCCCN(C)C)s2)c(C)[nH]c1=O [Example 34, 5-(5-Ethyl-2-methyl-6-oxo-1,6-dihydropyridin-3-yl)thiophene-2-sulfonic acid (3-dimethylaminopropyl)amide hydrochloride] | 4.5
15 | CCc1cc(-c2ccc(S(=O)(=O)NCc3ccc(C)o3)s2)c(C)[nH]c1=O [Example 35, 5-(5-Ethyl-2-methyl-6-oxo-1,6-dihydropyridin-3-yl)thiophene-2-sulfonic acid (5-methylfuran-2-yl)methylamide] | 10.9
16 | CCc1cc(-c2ccc(S(=O)(=O)NCCC3CCCN3C)s2)c(C)[nH]c1=O (centres unmarked) [Example 36, 5-(5-Ethyl-2-methyl-6-oxo-1,6-dihydropyridin-3-yl)thiophene-2-sulfonic Acid [2-(1-methylpyrrolidin-2-yl)ethyl]amide hydrochloride] | 3.7
17 | CCc1cc(-c2ccc(S(=O)(=O)N(C)CC(O)c3ccccc3)s2)c(C)[nH]c1=O (centres unmarked) [Example 37, 5-(5-Ethyl-2-methyl-6-oxo-1,6-dihydropyridin-3-yl)thiophene-2-sulfonic acid (2-hydroxy-2-phenylethyl)methylamide] | 2
18 | CCc1cc(-c2ccc(S(=O)(=O)NCCN3CCOCC3)s2)c(C)[nH]c1=O [Example 38, 5-(5-Ethyl-2-methyl-6-oxo-1,6-dihydropyridin-3-yl)thiophene-2-sulfonic acid (2-morpholin-4-yl)ethylamide hydrochloride] | 0.77
19 | CCc1cc(-c2ccc(S(=O)(=O)NCC3CCN(C(=O)OC(C)(C)C)CC3)s2)c(C)[nH]c1=O [Example 41-1, 5-(5-Ethyl-2-methyl-6-oxo-1,6-dihydropyridin-3-yl)thiophene-2-sulfonic acid (1-tert-butyloxycarbonylpiperidin-4-yl)methylamide] | 1.5

Further lines, results first:

Row | IC50 [µM] | Compound
20 | 0.4 | CCc1cc(-c2cccc(C#N)c2)c(C)[nH]c1=O [Example 1, 3-(5-Ethyl-2-methyl-6-oxo-1,6-dihydropyridin-3-yl)benzonitrile]
21 | 0.56 | CCc1cc(-c2nnco2)c(C)[nH]c1=O [Example 14, 3-Ethyl-6-methyl-5-(1,3,4-oxadiazol-2-yl)-1H-pyridin-2-one]
22 | 0.35 | CCc1cc(-c2nc[nH]n2)c(C)[nH]c1=O [Example 16, 3-Ethyl-6-methyl-5-(2H-1,2,4-triazol-3-yl)-1H-pyridin-2-one]
23 | 0.23 | CCc1cc(-c2nc(C)no2)c(C)[nH]c1=O [Example 19, 3-Ethyl-6-methyl-5-(3-methyl-1,2,4-oxadiazol-5-yl)-1H-pyridin-2-one]
24 | 0.17 | CCc1cc(-c2n[nH]c(C)n2)c(C)[nH]c1=O [Example 21, 3-Ethyl-6-methyl-5-(5-methyl-2H-1,2,4-triazol-3-yl)-1H-pyridin-2-one]
25 | 0.63 | CCc1cc(-c2ccc(S(=O)(=O)N3CCN(c4ccccc4)CC3)s2)c(C)[nH]c1=O [Example 24, 3-Ethyl-6-methyl-5-[5-(4-phenylpiperazine-1-sulfonyl)thiophen-2-yl]-1H-pyridin-2-one]
26 | 0.57 | CCc1cc(-c2ccc(S(=O)(=O)N(C)Cc3cc(F)cc(F)c3)s2)c(C)[nH]c1=O [Example 29, 5-(5-Ethyl-2-methyl-6-oxo-1,6-dihydropyridin-3-yl)thiophene-2-sulfonic acid (3,5-difluorobenzyl)methylamide]
27 | 0.52 | CCc1cc(-c2ccc(S(=O)(=O)NCC3CCNCC3)s2)c(C)[nH]c1=O [Example 41-2, 5-[5-Ethyl-2-methyl-6-oxo-(1,6-dihydropyridin-3-yl)]thiophene-2-sulfonic acid (piperidin-4-yl)methylamide hydrochloride]
28 | 0.22 | CCc1cc(-c2ccc(S(=O)(=O)N3CCN(c4ccncc4)CC3)o2)c(C)[nH]c1=O [Example 45, 3-Ethyl-6-methyl-5-{5-[(4-pyridin-4-yl)piperazine-1-sulfonyl]furan-2-yl}-1H-pyridin-2-one hydrochloride]
29 | 0.46 | CCc1cc(-c2ccc(S(=O)(=O)NC3CCN(Cc4ccccc4)CC3)o2)c(C)[nH]c1=O [Example 46, 5-(5-Ethyl-2-methyl-6-oxo-1,6-dihydropyridin-3-yl)furan-2-sulfonic acid (1-benzylpiperidin-4-yl)amide hydrochloride]
